# Laboratory results from US20210196714A1, “COMPOSITIONS AND METHODS FOR TREATING DISORDERS CHARACTERIZED WITH ABERRANT RAS/MAPK SIGNALING” (Duke University, priority 2018, published 2021).
# Entries after “also recorded” stand apart in the source; their conditions may differ.
# Key:
# Assay type in all cases: in vivo, zebrafish
# [1] = system: pMEK1/2; experiment: Western blot of pMEK1/2 in head lysate of 5 dpf embryos; settings: 100 nM or 500 nM
# Method: FIG. 7: dmDf attenuates hyperactive MEK signaling in vivo. (a) Western blot analysis for the level of pMEK1/2 from the head lysate of 5 dpf zebrafish embryos. Depletion of kmt2d (lane 4) elevates the abundance of pMEK1/2 in comparison to control embryos (lane 1). […] (b) Summary of the relative levels of pMEK1/2 from three independent experiments. *p<0.05 (n=3). (c) kmt2d morphants were treated with serially increasing concentrations of dmDf. The embryos were scored for CE phenotypes as described earlier (n>25 for each concentration. (d) The distance between MK and CH cartilages was measured from the same embryos as in (c). *p<0.05; **p<0.01. Error bars show SEM (standard error of the mean).
# The phenotypic rescue of the zebrafish KS models by dmDf predicts a successful attenuation of hyperactive MEK signaling. To test this hypothesis directly, experiments were conducted that suppressed kmt2d, harvested and pooled protein from embryo heads (n=20/condition) and measured the abundance of phosphorylated (activated) MEK1/2 (pMEK1/2).
# Zebrafish larvae (5 dpf; n=20) were decapitated and heads were homogenized with RIPA buffer (50 mM NaCl, 1% NP40, 50 mM Tris-HCl pH 7.5, 0.1% SDS, 0.5% Na deoxycholate, 1 mM Na3VO4, and 1 mM NaF). […]
# [2] = system: kmt2d+/−×kmt2d+/− progeny; experiment: Brain cell proliferation in stable kmt2d mutant intercross progeny; settings: 100 mM dmDf, 2 dpf
# Excerpt: FIG. 12: Treatment with dmDf rescues the defects of stable kmt2d mutant. kmt2d+/− adults were in-crossed and the embryos were then collected at 1 dpf, 2 dpf and 5 dpf to assess dmDf efficacy. […] Error bars show SEM (standard error of the mean).
# Although the small molecule testing data in CRISPR F0 mosaic models are consistent with morphant phenotypes (and rescue), experiments recognized the necessity of testing the potential efficacy of dmDf in a stable genetic model that is a better genotypic proxy to human patients. […] In addition to examining proliferation of cells in the brain, experiments assessed whether neural differentiation is affected (see, Van Laarhoven, P. M. et al. Hum Mol Genet 24, 4443-53 (2015)).
# (§1) For convergence and extension (CE) phenotyping, embryos were scored as described (see, Leitch, C. C. et al. Nat Genet 40, 443-8 (2008)) at the 8-10 somite stage, and images were captured using an AZ100 microscope and NIS Elements software (Nikon). […] The distance between Meckel's (MK) and ceratohyal (CH) cartilages was measured on ventral bright field images with Image J (NIH). […] Fluorescence signal on embryo heads was imaged with the Nikon AZ100 microscope and DS-Qi1MC digital camera using […] Z-stacks to generate extended depth of focus images. Cell numbers were quantified using the ImageJ ICTN plugin (NIH). […]
# [3] = system: rap1-CRISPR embryos; experiment: Brain cell proliferation (pHH3 immunostaining) in rap1-mosaic mutants; settings: 100 nM, 2 dpf, listed as dmDf
# Excerpt: Intellectual disability represents a major phenotype in KS, with some studies reporting almost 90% of patients to be affected (see, Wessels, M. W., et al. Clin Dysmorphol 11, 95-102 (2002)). […] Previous studies have shown that defects in proliferation in the developing zebrafish brain can be a proxy for neurodevelopmental and neurocognitive traits, especially in the context of microcephaly (see, Borck, G. et al. Genome Res 25, 609 (2015); Brooks, S. S. et al. Genetics 198, 723-33 (2014); O'Rawe, J. A. et al. Am J Hum Genet 97, 922-32 (2015); Wortmann, S. B. et al. Am J Hum Genet 96, 245-57 (2015)), a phenotype reported commonly in KS (see, Matsumoto, N. & Niikawa, N. Am J Med Genet C Semin Med Genet 117C, 57-65 (2003)).
# as §1
smiles,measurement,setting,value
"CC(C)c1nc(-c2cccc(NS(=O)(=O)c3c(F)cccc3F)c2F)c(-c2ccnc(N)n2)s1 [Compound 8, desmethyl-Dabrafenib]",abundance of pMEK1/2,"[1]; kmt2d suppressed, 5 dpf heads, listed as dmDf",attenuates hyperactivation of MEK1/2; also recorded: restored the abundance of pMEK1/2 to levels indistinguishable from wild type embryos
same,abundance of pMEK1/2,[1]; uninjected embryos,neither concentration had an appreciable effect
same,number of proliferating cells in the brain,[2],increases significantly; also recorded: rescued
same,total number of proliferating (pHH3+) cells in brain,[3],can be rescued; also recorded: restored the total number of proliferating cells to wild type levels
